Test results as given in ChEMBL document CHEMBL2390930, “Design, synthesis and evaluation of 1,2-benzisothiazol-3-one derivatives as potent caspase-3 inhibitors” (Bioorg Med Chem, 2013).

Target: T1, Caspase-3 (Homo sapiens, UniProt P42574)
T1 sequence (P42574 whole entry): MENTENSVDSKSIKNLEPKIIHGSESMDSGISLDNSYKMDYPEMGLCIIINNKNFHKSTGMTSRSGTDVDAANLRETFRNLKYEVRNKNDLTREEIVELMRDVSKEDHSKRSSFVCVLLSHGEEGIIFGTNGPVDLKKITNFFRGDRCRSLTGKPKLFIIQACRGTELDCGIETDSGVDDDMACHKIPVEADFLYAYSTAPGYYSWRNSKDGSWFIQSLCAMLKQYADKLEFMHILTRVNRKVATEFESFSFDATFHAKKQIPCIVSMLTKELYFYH
Assay: Inhibition of recombinant human caspase-3 using Ac-LDEVD-AMC as substrate assessed as accumulation of 7-AMC incubated for 10 mins followed by substrate addition measured for 10 mins by fluorimetric analysis

| SMILES | IC50 [nM] |
| --- | --- |
| O=c1c2ccccc2sn1-c1ccccc1 | 533 |
| Cn1sc2ccccc2c1=O | 42400 |
| Cc1ccc(-n2sc3ccccc3c2=O)cc1 | 466 |
| O=C(Nc1ccc(I)cc1)n1sc2ccccc2c1=O | > 100000 |
| O=C(NCc1ccccc1)n1sc2ccccc2c1=O | 86 |
